Structures are written as SMILES.

One data set relates to HT29. The experiment in a line: 72-h MTT cytotoxicity assay HT29. The conditions noted are these: Homo sapiens, HT-29, 72 h, Table 4. The format is cell-based. The essentials:
(§1)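 MTT viability, 72 h compound exposure at 37° C; triplicate wells, 1/3 serial dilutions from DMSO stocks; seeding density per doubling time; MTT 4 h in dark; DMSO solubilisation.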
On the technique in general: Tetrazolium dyes change colour on reduction, which living cells bring about.

For a further data set, the target named is CDK2/cyclin A (Homo sapiens, UniProt P24941). The experiment in a line: Kinase assay CDK2/cyclin A. The conditions noted are these: Table 2; read-out: Kinase Inhibition IC50 CDK2 cyclin A. The format is biochemical. The essentials: (§2)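 Radiometric kinase assays with recombinant enzymes (2-4 μg) and polypeptide substrates in β-glycerophosphate/MOPS/EGTA buffer, pH 7.4. Started with 15 mM MgCl2 + 100 μM ATP containing [γ-32P]-ATP, incubated at 30° C; incorporated 32P captured on filterplates and counted. Compounds diluted in 10% DMSO assay buffer.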

Another data set addresses CDK4/cyclin D1 (Homo sapiens, UniProt P11802). Nature of the data set: Kinase assay CDK4/cyclin D1. The format is biochemical. The conditions noted are these: Table 2; read-out: Kinase Inhibition IC50 CDK4 cyclin D1. The essentials: as §2
The next data set addresses CDK2/cyclin E (Homo sapiens, UniProt P24941). The experiment in a line: Kinase assay CDK2/cyclin E. The format is biochemical. The following applies: Table 2; read-out: Kinase Inhibition IC50 CDK2 cyclin E. The essentials:
as §2

A further data set addresses CDK9/cyclin T1 (Homo sapiens, UniProt P50750). The experiment in a line: CDK9 assay. Type of data set: biochemical. The conditions noted are these: Table 2; read-out: Kinase Inhibition IC50 CDK9 cyclin T1. The essentials:
(§3)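 Recombinant human CDK7/cyclin H or CDK9/cyclin T1 (0.5–2 μg) phosphorylated biotinylated CTD heptapeptide-repeat substrate for 45 min at 30 °C in MOPS pH 7.2 buffer with 15 mM MgCl2 and 100 μM ATP plus [γ-32P]ATP. After avidin capture on P81 filters and phosphoric acid washes, 32P incorporation was counted by scintillation.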

The subject of the next data set is Saos-2. Nature of the data set: 72-h MTT cytotoxicity assay Saos-2. The format is cell-based. The following applies: Homo sapiens, SAOS-2, 72 h, Table 4. The essentials: as §1
In another data set the target is CDK7/cyclin H (Homo sapiens, UniProt P50613). Nature of the data set: CDK7 assay. Type of data set: biochemical. The following applies: Table 2; read-out: Kinase Inhibition IC50 CDK7 cyclin H. The essentials:
as §3

In a further data set the test system is A549. The experiment in a line: 72-h MTT cytotoxicity assay A549. Type of data set: cell-based. The conditions noted are these: Homo sapiens, A549, 72 h, Table 4. The essentials:
as §1

Another data set has as its target CDK1/cyclin B (Homo sapiens, UniProt P06493). Nature of the data set: Kinase assay CDK1/cyclin B. Type of data set: biochemical. The conditions noted are these: Table 2; read-out: Kinase Inhibition IC50 CDK1 cyclin B. The essentials:
as §2

A further data set concerns the target GSK-3β (Homo sapiens, UniProt P49841). Nature of the data set: Kinase assay GSK-3β. Type of data set: biochemical. The conditions noted are these: Table 2; read-out: Kinase Inhibition IC50 GSK-3β. How it is done:
(§4) Kinase assays. […] This was achieved by measurement of incorporation of radioactive phosphate from ATP into appropriate polypeptide substrates. Recombinant protein kinases and kinase complexes were produced or obtained commercially. Assays were performed using 96-well plates and appropriate assay buffers (typically 25 mM β-glycerophosphate, 20 mM MOPS, 5 mM EGTA, 1 mM DTT, 1 mM […], pH 7.4), into which were added 2-4 μg of active enzyme with appropriate substrates. The reactions were initiated by addition of Mg/ATP mix (15 mM MgCl2+100 μM ATP with 30-50 kBq per well of [γ-^32P]-ATP) and mixtures incubated as required at 30° C. Reactions were stopped on ice, followed by filtration through p81 filterplates or GF/C filterplates (Whatman Polyfiltronics, Kent, UK). After washing 3 times with 75 mM aq orthophosphoric acid, plates were dried, scintillant added and incorporated radioactivity measured in a scintillation counter (TopCount, Packard Instruments, Pangbourne, Berks, UK). Compounds for kinase assay were made-up as 10 mM stocks in DMSO and diluted into 10% DMSO inrassay buffer.

Another data set addresses PLK-1 (Homo sapiens, UniProt P53350). Nature of the data set: Kinase assay PLK-1. The conditions noted are these: Table 2; read-out: Kinase Inhibition IC50 PLK-1. The format is biochemical. How it is done: as §4

CDK1/cyclin B, sequence (P06493 whole entry): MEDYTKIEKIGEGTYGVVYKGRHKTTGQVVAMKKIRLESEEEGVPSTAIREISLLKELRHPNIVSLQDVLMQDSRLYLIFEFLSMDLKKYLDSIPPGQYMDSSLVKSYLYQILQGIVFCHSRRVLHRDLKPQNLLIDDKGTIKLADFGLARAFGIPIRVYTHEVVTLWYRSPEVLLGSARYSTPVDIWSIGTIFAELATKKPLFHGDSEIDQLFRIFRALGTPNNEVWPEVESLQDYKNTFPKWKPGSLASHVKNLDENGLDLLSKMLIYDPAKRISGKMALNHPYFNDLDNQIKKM
CDK1/cyclin B, sequence (P14635 whole entry partner): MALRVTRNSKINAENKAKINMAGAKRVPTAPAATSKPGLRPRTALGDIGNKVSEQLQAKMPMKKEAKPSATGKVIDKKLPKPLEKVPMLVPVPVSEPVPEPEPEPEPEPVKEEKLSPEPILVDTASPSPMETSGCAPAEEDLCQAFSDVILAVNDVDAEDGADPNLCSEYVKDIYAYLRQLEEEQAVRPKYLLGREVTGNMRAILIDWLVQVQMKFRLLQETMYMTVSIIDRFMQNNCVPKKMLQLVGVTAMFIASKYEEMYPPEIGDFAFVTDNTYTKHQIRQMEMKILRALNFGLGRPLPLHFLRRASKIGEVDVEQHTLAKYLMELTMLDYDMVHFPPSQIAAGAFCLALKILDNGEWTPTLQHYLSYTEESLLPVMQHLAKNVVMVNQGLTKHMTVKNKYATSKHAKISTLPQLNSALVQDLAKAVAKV
CDK4/cyclin D1, sequence (P11802 whole entry): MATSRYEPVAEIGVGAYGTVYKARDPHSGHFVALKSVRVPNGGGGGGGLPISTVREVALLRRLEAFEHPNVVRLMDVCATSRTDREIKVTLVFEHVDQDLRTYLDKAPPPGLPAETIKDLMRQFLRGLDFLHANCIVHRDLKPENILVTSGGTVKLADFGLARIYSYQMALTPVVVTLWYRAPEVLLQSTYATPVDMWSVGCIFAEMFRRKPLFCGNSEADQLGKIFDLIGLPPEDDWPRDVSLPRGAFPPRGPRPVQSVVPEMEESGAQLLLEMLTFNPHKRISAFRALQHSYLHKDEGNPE
CDK4/cyclin D1, sequence (P24385 whole entry partner): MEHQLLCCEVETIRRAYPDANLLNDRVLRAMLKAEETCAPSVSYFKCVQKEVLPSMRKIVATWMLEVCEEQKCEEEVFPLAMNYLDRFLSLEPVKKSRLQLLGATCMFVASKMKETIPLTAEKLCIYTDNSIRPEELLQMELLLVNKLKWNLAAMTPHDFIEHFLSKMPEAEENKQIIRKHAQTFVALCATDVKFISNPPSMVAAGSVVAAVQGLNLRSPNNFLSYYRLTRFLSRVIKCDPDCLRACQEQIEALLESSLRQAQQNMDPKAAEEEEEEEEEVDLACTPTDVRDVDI
GSK-3β, sequence (P49841 whole entry): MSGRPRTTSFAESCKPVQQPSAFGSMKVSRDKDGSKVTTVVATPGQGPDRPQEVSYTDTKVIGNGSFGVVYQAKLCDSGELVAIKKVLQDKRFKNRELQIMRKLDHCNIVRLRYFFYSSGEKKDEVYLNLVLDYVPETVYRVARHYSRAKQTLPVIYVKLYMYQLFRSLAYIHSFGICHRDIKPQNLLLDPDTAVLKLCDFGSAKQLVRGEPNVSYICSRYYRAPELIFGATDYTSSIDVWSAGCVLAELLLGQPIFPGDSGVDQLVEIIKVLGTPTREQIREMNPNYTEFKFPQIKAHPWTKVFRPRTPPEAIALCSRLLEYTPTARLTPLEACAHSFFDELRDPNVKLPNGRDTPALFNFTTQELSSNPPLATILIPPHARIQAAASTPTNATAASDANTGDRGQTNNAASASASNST
CDK9/cyclin T1, sequence (P50750 whole entry): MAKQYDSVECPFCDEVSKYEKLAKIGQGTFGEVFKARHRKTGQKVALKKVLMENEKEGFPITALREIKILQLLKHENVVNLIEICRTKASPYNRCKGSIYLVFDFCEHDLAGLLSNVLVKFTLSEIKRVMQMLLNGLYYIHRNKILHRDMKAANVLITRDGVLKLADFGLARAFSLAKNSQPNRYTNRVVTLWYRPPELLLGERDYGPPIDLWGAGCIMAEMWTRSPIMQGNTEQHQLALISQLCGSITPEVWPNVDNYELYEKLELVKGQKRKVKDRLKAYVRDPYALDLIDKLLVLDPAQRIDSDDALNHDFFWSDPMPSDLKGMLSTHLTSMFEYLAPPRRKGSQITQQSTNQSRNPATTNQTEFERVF
CDK9/cyclin T1, sequence (O60563 whole entry partner): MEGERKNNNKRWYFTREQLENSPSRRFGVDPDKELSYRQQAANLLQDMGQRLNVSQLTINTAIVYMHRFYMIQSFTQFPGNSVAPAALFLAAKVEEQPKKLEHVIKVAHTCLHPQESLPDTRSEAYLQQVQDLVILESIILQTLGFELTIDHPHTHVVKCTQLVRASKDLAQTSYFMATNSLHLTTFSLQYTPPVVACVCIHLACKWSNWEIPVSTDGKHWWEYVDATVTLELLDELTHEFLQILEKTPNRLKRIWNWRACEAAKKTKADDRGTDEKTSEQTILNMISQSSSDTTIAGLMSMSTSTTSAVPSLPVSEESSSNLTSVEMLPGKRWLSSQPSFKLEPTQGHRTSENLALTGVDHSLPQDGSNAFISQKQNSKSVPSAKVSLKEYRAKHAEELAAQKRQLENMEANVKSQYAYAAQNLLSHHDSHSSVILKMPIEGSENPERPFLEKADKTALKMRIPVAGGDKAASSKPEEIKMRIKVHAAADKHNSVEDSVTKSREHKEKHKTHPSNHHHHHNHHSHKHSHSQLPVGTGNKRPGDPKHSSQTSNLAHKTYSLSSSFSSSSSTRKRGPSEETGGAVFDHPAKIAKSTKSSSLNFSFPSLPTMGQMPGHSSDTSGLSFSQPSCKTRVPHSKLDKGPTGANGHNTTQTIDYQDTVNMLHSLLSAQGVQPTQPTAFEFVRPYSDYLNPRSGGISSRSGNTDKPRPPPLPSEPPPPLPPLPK
CDK7/cyclin H, sequence (P50613 whole entry): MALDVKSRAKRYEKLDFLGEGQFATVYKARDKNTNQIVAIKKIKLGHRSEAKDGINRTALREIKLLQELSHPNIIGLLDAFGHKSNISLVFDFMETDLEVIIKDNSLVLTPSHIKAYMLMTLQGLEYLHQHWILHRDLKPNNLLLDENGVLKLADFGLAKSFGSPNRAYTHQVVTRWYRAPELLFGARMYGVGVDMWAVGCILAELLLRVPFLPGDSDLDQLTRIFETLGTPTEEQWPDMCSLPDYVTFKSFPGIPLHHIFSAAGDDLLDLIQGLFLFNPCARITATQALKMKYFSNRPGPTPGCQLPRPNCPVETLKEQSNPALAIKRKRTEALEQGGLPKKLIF
PLK-1, sequence (P53350 whole entry): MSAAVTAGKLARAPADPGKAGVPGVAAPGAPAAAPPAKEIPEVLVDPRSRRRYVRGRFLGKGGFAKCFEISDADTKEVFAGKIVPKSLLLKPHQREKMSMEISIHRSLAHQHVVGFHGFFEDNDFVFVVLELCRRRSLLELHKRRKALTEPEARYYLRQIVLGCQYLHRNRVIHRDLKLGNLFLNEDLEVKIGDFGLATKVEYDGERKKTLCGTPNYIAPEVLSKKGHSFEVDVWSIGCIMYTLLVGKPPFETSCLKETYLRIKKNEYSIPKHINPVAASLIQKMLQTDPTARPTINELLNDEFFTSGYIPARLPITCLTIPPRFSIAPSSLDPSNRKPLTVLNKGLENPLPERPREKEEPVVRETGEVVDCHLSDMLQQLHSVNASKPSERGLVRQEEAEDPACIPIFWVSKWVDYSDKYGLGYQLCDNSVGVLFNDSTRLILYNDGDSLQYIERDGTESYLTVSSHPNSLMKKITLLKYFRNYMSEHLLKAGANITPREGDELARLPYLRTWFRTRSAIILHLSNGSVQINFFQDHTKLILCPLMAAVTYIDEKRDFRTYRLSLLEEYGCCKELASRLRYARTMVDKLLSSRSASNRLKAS

Consider `Cc1nc(C)c(-c2ccnc(Nc3ccc(NC(=O)CCl)cc3)n2)s1` [Compound 50, 2-Chloro-N-{4-[4-(2,4-dimethyl-thiazol-5-yl)-pyrimidin-2-ylamino]-phenyl}-acetamide], for which the melting point (in general, the temperature, or range, at which the solid turns liquid) fell in the range of 217 to 219 °C. In addition, inhibition with HT29 was half-maximal at 160 nM (IC50). At CDK2/cyclin A, the IC50 (usually the point on the concentration scale where inhibition reaches its midpoint) was found to be 890 nM. Also, the 50% inhibitory concentration (IC50) on CDK4/cyclin D1 worked out at 950 nM. Also, the IC50 on CDK2/cyclin E turned out to be 390 nM. Also, the IC50 on CDK9/cyclin T1 worked out at 1.8 nM. The molecule further yielded an IC50 with Saos-2 of 160 nM. The IC50 on CDK7/cyclin H was found to be 13000 nM. The IC50 with A549 turned out to be 160 nM. In addition, the IC50 on CDK1/cyclin B was 3400 nM.
Consider `Cc1nc(C)c(-c2ccnc(Nc3ccc(N4CCN(CCCO)CC4)cc3)n2)s1` [Compound 8, 3-(4-{4-[4-(2,4-Dimethyl-thiazol-5-yl)-pyrimidin-2-ylamino]-phenyl}-piperazin-1-yl)-propan-1-ol], for which the half-maximal inhibitory concentration (IC50) in the data set on HT29 was 800 nM; at CDK2/cyclin A, 1100 nM; at GSK-3β, 39000 nM; on CDK4/cyclin D1, 360 nM; on CDK2/cyclin E it was 1200 nM; at CDK9/cyclin T1 it was 510 nM. The IC50 in the data set with Saos-2 was 380 nM; at PLK-1, over 150000 nM; at CDK7/cyclin H, 970 nM; in the data set on A549 it was 610 nM; on CDK1/cyclin B it was 4900 nM.
As to `Cc1nc(NC(=O)CCN2CCOCC2)sc1-c1ccnc(Nc2cccc([N+](=O)[O-])c2)n1` [Compound 22, N-{4-Methyl-5-[2-(3-nitro-phenylamino)-pyrimidin-4-yl]-thiazol-2-yl}-3-morpholin-4-yl-propionamide], the IC50 in the data set with HT29 was found to be 520 nM; on CDK2/cyclin A it was 98 nM; at GSK-3β, 250 nM; on CDK4/cyclin D1 it was 1700 nM; on CDK2/cyclin E, 2.5 nM; on CDK9/cyclin T1, 110 nM. Also, the IC50 was 600 nM in the data set on Saos-2; over 100000 nM on PLK-1; 200 nM on CDK7/cyclin H; 810 nM in the data set on A549; 240 nM on CDK1/cyclin B.
For the molecule `Cc1nc(NC(=O)CCN2CCN(C)CC2)sc1-c1ccnc(Nc2cccc([N+](=O)[O-])c2)n1` [Compound 23, N-{4-Methyl-5-[2-(3-nitro-phenylamino)-pyrimidin-4-yl]-thiazol-2-yl}-3-(4-methyl-piperazin-1-yl)-propionamide], the IC50 in the data set on HT29 is 1100 nM; at CDK2/cyclin A, 1400 nM; at GSK-3β, 1200 nM; on CDK4/cyclin D1, 3000 nM; on CDK2/cyclin E, 190 nM; at CDK9/cyclin T1 it was 400 nM. The IC50 was found to be 4400 nM with Saos-2; 24000 nM at PLK-1; 810 nM on CDK7/cyclin H; 3800 nM in the data set with A549; 3100 nM on CDK1/cyclin B.
As to `Cc1nc(C)c(-c2ccnc(Nc3ccc(N4CCNCC4)cc3)n2)s1` [Compound 6, [4-(2,4-Dimethyl-thiazol-5-yl)-pyrimidin-2-yl]-(4-piperazin-1-yl-phenyl)-amine], the 50% inhibitory concentration (IC50) with HT29 is 1100 nM; on CDK2/cyclin A, 850 nM; at GSK-3β, 5200 nM; on CDK4/cyclin D1, 390 nM; on CDK2/cyclin E, 710 nM; on CDK9/cyclin T1, 1000 nM. Further, the IC50 in the data set with Saos-2 is 780 nM; at PLK-1, 13000 nM; at CDK7/cyclin H it was 1300 nM; in the data set with A549 it was 1300 nM; on CDK1/cyclin B, 3000 nM.
As for `Cc1nc(NC(=O)CCN2CCOCC2)sc1-c1ccnc(Nc2ccc(F)cc2)n1` [Compound 21, N-{5-[2-(4-Fluoro-phenylamino)-pyrimidin-4-yl]-4-methyl-thiazol-2-yl}-3-morpholin-4-yl-propionamide], the IC50 is 4100 nM in the data set with HT29; 320 nM at CDK2/cyclin A; 14000 nM on GSK-3β; 1300 nM at CDK4/cyclin D1; 97 nM on CDK2/cyclin E; 460 nM on CDK9/cyclin T1. Moreover, the IC50 in the data set on Saos-2 was 4300 nM; on PLK-1, over 200000 nM; at CDK7/cyclin H, 4900 nM; in the data set on A549, 8600 nM; on CDK1/cyclin B it was 540 nM.
Consider `Cc1nc(C)c(-c2ccnc(Nc3ccc(N4CCN(C)CC4)cc3)n2)s1` [Compound 12, [4-(2,4-Dimethyl-thiazol-5-yl)-pyrimidin-2-yl]-[4-(4-methyl-piperazin-1-yl)-phenyl]-amine], for which the half-inhibitory concentration (IC50) in the data set on HT29 amounted to 740 nM; at CDK2/cyclin A it was 1000 nM; on GSK-3β, 53000 nM; at CDK4/cyclin D1, 190 nM; at CDK2/cyclin E, 1800 nM; at CDK9/cyclin T1, 280 nM. Also, the IC50 in the data set on Saos-2 amounted to 430 nM; at PLK-1 it was 55000 nM; on CDK7/cyclin H it was 1100 nM; in the data set on A549 it was 710 nM; on CDK1/cyclin B, 4200 nM.
Regarding `CC(=O)NCc1cccc(Nc2nccc(-c3sc(C)nc3C)n2)c1` [Compound 66, N-{3-[4-(2,4-Dimethyl-thiazol-5-yl)-pyrimidin-2-ylamino]-benzyl}-acetamide], the melting point was 206 to 207 °C. Besides, the IC50 on CDK2/cyclin A is 100 nM. Besides, on CDK4/cyclin D1, the IC50 was found to be 630 nM. At CDK2/cyclin E, the IC50 was 110 nM. Moreover, the IC50 on CDK7/cyclin H was 2100 nM. For the same molecule, on CDK1/cyclin B, the IC50 stood at 120 nM.
The molecule `Cc1nc(N2CCOCC2)sc1-c1ccnc(Nc2ccc(N3CCOCC3)cc2)n1` [Compound 56, [4-(4-Methyl-2-morpholin-4-yl-thiazol-5-yl)-pyrimidin-2-yl]-(4-morpholin-4-yl-phenyl)-amine] gave a melting point of 229 to 231 °C. Besides, the IC50 in the data set with HT29 turned out to be 2900 nM. The IC50 on CDK2/cyclin A was 68000 nM. For the same molecule, the IC50 at GSK-3β was over 100000 nM. The IC50 at CDK4/cyclin D1 amounted to 22 nM. Further, at CDK2/cyclin E, the IC50 turned out to be 600 nM. Also, the IC50 at CDK9/cyclin T1 came out at 17000 nM. The IC50 in the data set with Saos-2 was determined as 5000 nM. The IC50 on CDK7/cyclin H stood at 850 nM. Also, the IC50 in the data set on A549 was 4400 nM. In addition, the IC50 on CDK1/cyclin B was 18000 nM.
In the case of `Cc1nc(C)c(-c2ccnc(Nc3ccc(N4CCOCC4)cc3)n2)s1` [Compound 2, [4-(2,4-Dimethyl-thiazol-5-yl)-pyrimidin-2-yl]-(4-morpholin-4-yl-phenyl)-amine], the IC50 is 3300 nM in the data set with HT29; over 100000 nM on GSK-3β; 3900 nM on CDK4/cyclin D1; 23000 nM at CDK9/cyclin T1; 4800 nM with Saos-2; over 100000 nM on PLK-1. Further, the IC50 on CDK7/cyclin H stood at 97000 nM; in the data set on A549 it was 3500 nM; on CDK1/cyclin B it was 75000 nM.
As to `CCNc1nc(C)c(-c2ccnc(Nc3cccc(CNC(C)=O)c3)n2)s1` [Compound 64, N-{3-[4-(2-Ethylamino-4-methyl-thiazol-5-yl)-pyrimidin-2-ylamino]-benzyl}-acetamide], the IC50 in the data set on HT29 stood at 410 nM; on CDK2/cyclin A it was 310 nM; at GSK-3β, 2100 nM; at CDK4/cyclin D1, 130 nM; on CDK2/cyclin E, 80 nM; at CDK9/cyclin T1, 100 nM. For the same molecule, the IC50 in the data set on Saos-2 is 340 nM; on PLK-1, 18000 nM; on CDK7/cyclin H it was 590 nM; in the data set with A549, 190 nM; at CDK1/cyclin B it was 740 nM.
`CNc1nc(C)c(-c2ccnc(Nc3ccc(CCO)cc3)n2)s1` [Compound 59, 2-{4-[4-(4-Methyl-2-methylamino-thiazol-5-yl)-pyrimidin-2-ylamino]-phenyl}-ethanol] displayed a melting point of 216 to 218 °C. This molecule also registered an IC50 with HT29 of 1700 nM. For the same molecule, at CDK2/cyclin A, the IC50 is 110 nM. In addition, at GSK-3β, the IC50 turned out to be 2200 nM. In addition, at CDK4/cyclin D1, the IC50 is 86 nM. Moreover, the IC50 on CDK2/cyclin E worked out at 140 nM. For the same molecule, the IC50 at CDK9/cyclin T1 stood at 470 nM. Further, 1900 nM corresponded to half-maximal inhibition with Saos-2 (IC50). For the same molecule, the IC50 on CDK7/cyclin H amounted to 2600 nM. The molecule also had an IC50 with A549 of 2400 nM. Further, on CDK1/cyclin B, the IC50 was determined as 710 nM.

The values are drawn from patent US7432260B2, “Pyrimidine compounds” (Cyclacel Limted, priority 2002, dated 2008).
